Data on 28 molecules can be found in patent US20260042755A1, “GPR6 INVERSE AGONISTS” (MapLight Therapeutics, Inc., priority 2022, published 2026).

In one experiment the target is T1, GPR6 (Homo sapiens, UniProt P46095).
T1 construct: expressed in transfected cells; host or cells: CHO cells
Put plainly: GPR6 antagonist functional cAMP assay (LANCE Ultra cAMP TR-FRET, CHO cells stably expressing GPR6). Type of experiment: cell-based. A digest of the protocol:
(§1)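 Suspended cells were plated at 10,000 per well in Krebs-Ringer bicarbonate buffer containing 0.1% BSA and 150 μM Ro 20-1724, then treated with compounds for 45 min at 37 °C. Intracellular cAMP was then quantified by TR-FRET immunoassay.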

The next experiment has as its target T2, GPR3 (Homo sapiens, UniProt P46089).
T2 construct: expressed in transfected cells; host or cells: CHO cells
Kind of experiment: GPR3 antagonist functional cAMP assay (LANCE Ultra cAMP TR-FRET, CHO cells stably expressing GPR3). Type of experiment: cell-based. The method in brief: as §1

Setting [1] is: CHO cells stably expressing GPR6, cAMP assay (Example 24).
Setting [2] is: CHO cells stably expressing GPR3, cAMP assay (Example 24).
Setting [3] is: procedure as described in Example 24.
Setting [4] is: CHO cells stably expressing GPR6, cAMP assay.
Setting [5] is: CHO cells stably expressing GPR3, cAMP assay.

T2 sequence (P46089 whole entry, species assumed): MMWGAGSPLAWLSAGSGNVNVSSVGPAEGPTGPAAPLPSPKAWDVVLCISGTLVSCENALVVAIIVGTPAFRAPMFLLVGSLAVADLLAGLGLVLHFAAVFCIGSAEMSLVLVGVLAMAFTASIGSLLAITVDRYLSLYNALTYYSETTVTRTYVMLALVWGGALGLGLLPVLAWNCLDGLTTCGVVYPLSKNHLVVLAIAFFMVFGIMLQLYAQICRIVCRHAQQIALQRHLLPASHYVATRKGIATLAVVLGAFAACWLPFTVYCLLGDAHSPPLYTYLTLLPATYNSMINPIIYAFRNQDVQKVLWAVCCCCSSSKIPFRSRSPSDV
T1 sequence (P46095 whole entry): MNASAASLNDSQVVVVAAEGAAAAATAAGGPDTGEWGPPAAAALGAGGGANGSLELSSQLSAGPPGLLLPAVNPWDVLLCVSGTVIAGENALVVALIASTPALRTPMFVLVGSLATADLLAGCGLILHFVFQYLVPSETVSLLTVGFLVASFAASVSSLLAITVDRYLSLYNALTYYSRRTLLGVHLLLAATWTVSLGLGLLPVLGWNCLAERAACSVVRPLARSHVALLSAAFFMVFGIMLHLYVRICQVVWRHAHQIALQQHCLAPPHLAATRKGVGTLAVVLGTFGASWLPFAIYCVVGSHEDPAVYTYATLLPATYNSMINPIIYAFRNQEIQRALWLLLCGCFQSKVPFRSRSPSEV

In the case of `CCn1cc(-c2nc3c(nc2N2CCC(Oc4ccc(F)cc4F)CC2)CCN(S(=O)(=O)CC)C3)cn1` [Compound 267, 4-(2,4-difluorophenoxy)-1-[6-(ethanesulfonyl)-3-(1-ethyl-1H-pyrazol-4-yl)-5H,6H,7H,8H-pyrido[3,4-b]pyrazin-2-yl]piperidine], the results for the concentration for half-maximal inhibition (IC50) against GPR6 (procedure of Example 24) and at GPR3 (procedure of Example 24) were 100 to 1000 nM and 1000 to 30000 nM, respectively.
Taken in the same sequence, the figures for `CC(C)(O)C(=O)c1cc2nc(N3CCC(Oc4ccc(F)cc4F)CC3)c(-c3cnn(C(F)F)c3)nc2cn1` [Compound 616, 1-{3-[1-(difluoromethyl)-4-pyrazolyl]-2-[4-(2,4-difluorophenoxy)-1-piperidyl]-1,4,6-triaza-7-naphthyl}-2-hydroxy-2-methyl-1-propanone] were 100 to 1000 nM and 1000 to 30000 nM.
In the case of `COc1ccc(-c2nc3c(nc2N2CCC(Oc4ccc(F)cc4F)CC2)CCN(C(C)=O)C3)cn1` [Compound 126, 1-{2-[4-(2,4-difluorophenoxy)piperidin-1-yl]-3-(6-methoxypyridin-3-yl)-5H,6H,7H,8H-pyrido[3,4-b]pyrazin-6-yl}ethan-1-one], the IC50 against GPR6 (setting [1]) fell in the range of 100 to 1000 nM; against GPR3 (setting [2]), 1000 to 30000 nM.
Taken in the same sequence, the figures for `Fc1ccc(CN2CCN(c3nc4cnccc4nc3-c3ncc[nH]3)CC2)c(Cl)c1` [Compound 65, 1-[(2-chloro-4-fluorophenyl)methyl]-4-[2-(1H-imidazol-2-yl)pyrido[3,4-b]pyrazin-3-yl]piperazine] were 1000 to 30000 nM and 100 to 1000 nM.
Taken in the same sequence, the figures for `CC(=O)N1CCc2nc(N3CCC(Oc4c(F)cc(F)cc4F)CC3)c(-c3cnn(C)c3)nc2C1` [Compound 428, 1-[3-(1-methyl-1H-pyrazol-4-yl)-2-[4-(2,4,6-trifluorophenoxy)piperidin-1-yl]-5H,6H,7H,8H-pyrido[3,4-b]pyrazin-6-yl]ethan-1-one] were 100 to 1000 nM and 1000 to 30000 nM.
Regarding `CC(=O)N1CCc2nc(N3CCC(COc4cccc(F)c4)C3)c(-c3cnn(C)c3)nc2C1` (centres unmarked) [Compound 324, 1-(2-{3-[(3-fluorophenoxy)methyl]pyrrolidin-1-yl}-3-(1-methyl-1H-pyrazol-4-yl)-5H,6H,7H,8H-pyrido[3,4-b]pyrazin-6-yl)ethan-1-one], the IC50 against GPR6 (procedure of Example 24) and against GPR3 (procedure of Example 24) was 1000 to 30000 nM in each case.
On to `CCn1cnc(-c2nc3c(nc2N2CCC(Oc4ccc(F)cc4F)CC2)CCN(C(C)=O)C3)c1` [Compound 476, 1-{2-[4-(2,4-difluorophenoxy)piperidin-1-yl]-3-(1-ethyl-1H-imidazol-4-yl)-5H,6H,7H,8H-pyrido[3,4-b]pyrazin-6-yl}ethan-1-one], for which the IC50 at GPR6 (setting [1]) and against GPR3 (setting [2]) was 1000 to 30000 nM in each case.
For `CC(=O)N1CCc2nc(N3CCC(Oc4ccc(F)cc4F)CC3)c(-c3cnn([C@@H](C)C#N)c3)nc2C1` (single isomer, unassigned) [Compound 271], the IC50 at GPR6 (procedure of Example 24) is 100 to 1000 nM; at GPR3 (procedure of Example 24), 1000 to 30000 nM.
On the same counts, the results for `CC(=O)N1CCc2nc(N3CCC(Oc4cc(F)ccc4F)C3)c(-c3cnn(C)c3)nc2C1` (centres unmarked) [Compound 342, 1-{2-[3-(2,5-difluorophenoxy)pyrrolidin-1-yl]-3-(1-methyl-1H-pyrazol-4-yl)-5H,6H,7H,8H-pyrido[3,4-b]pyrazin-6-yl}ethan-1-one] are 1000 to 30000 nM and 100 to 1000 nM.
Turning to `OCC1CN(c2nc3ccncc3nc2-c2cn[nH]c2)CCN1Cc1ccc(F)cc1F` (single isomer, unassigned) [Compound 93, (4-(3-(1H-pyrazol-4-yl)pyrido[3,4-b]pyrazin-2-yl)-1-(2,4-difluorobenzyl)piperazin-2-yl)methanol], the IC50 at GPR6 (setting [1]) is 1000 to 30000 nM; at GPR3 (setting [2]), at least 30000 nM.
With `Cn1cc(-c2nc3cnc(C(C)(O)C(C)(C)O)cc3nc2N2CCN(Cc3ccc(F)cc3F)CC2)cn1` (centres unmarked) [Compound 617, 2-(2-{4-[(2,4-difluorophenyl)methyl]-1-piperazinyl}-3-(1-methyl-4-pyrazolyl)-1,4,6-triaza-7-naphthyl)-3-methyl-2,3-butanediol], the IC50 against GPR6 (procedure of Example 24) lay in the range of 100 to 1000 nM; on GPR3 (procedure of Example 24) it was 1000 to 30000 nM.
For `CC(=O)N1CCc2nc(N3CCN(Cc4ccccc4C#N)CC3)c(-c3cnn(C)c3)nc2C1` [Compound 351, 2-({4-[6-acetyl-3-(1-methyl-1H-pyrazol-4-yl)-5H,6H,7H,8H-pyrido[3,4-b]pyrazin-2-yl]piperazin-1-yl}methyl)benzonitrile], the IC50 against GPR6 (procedure of Example 24) and against GPR3 (procedure of Example 24) was 1000 to 30000 nM in each case.
For the molecule `Cn1cc(-c2nc3cnc(C(=O)C(C)(C)O)cc3nc2N2CCC(Oc3ccc(F)cc3F)CC2)cn1` [Compound 413, 1-(2-(4-(2,4-difluorophenoxy)piperidin-1-yl)-3-(1-methyl-1H-pyrazol-4-yl)pyrido[3,4-b]pyrazin-7-yl)-2-hydroxy-2-methylpropan-1-one], the IC50 against GPR6 (setting [1]) lay within 100 to 1000 nM; on GPR3 (setting [2]) it was 1000 to 30000 nM.
Turning to `CC(C)(O)[C@H](O)c1cc2nc(-c3cnn(C4CC4)c3)c(N3CCN(Cc4ccccc4F)CC3)nc2cn1` (single isomer, unassigned) [Compound 781], the IC50 against GPR6 (procedure of Example 24) was in the range of 100 to 1000 nM; against GPR3 (procedure of Example 24), 1000 to 30000 nM.
`CC(=O)N1CCc2nc(N3CCC(Oc4ccc(F)cc4F)CC3)c(-c3cc[nH]c3)nc2C1` [Compound 46, 1-{2-[4-(2,4-difluorophenoxy)piperidin-1-yl]-3-(1H-pyrrol-3-yl)-5H,6H,7H,8H-pyrido[3,4-b]pyrazin-6-yl}ethan-1-one]: the IC50 at GPR6 (setting [3]) was 100 to 1000 nM; at GPR3 (setting [3]) it was 1000 to 30000 nM.
With `COC[C@@H]1CN(Cc2ccc(F)cc2F)CCN1c1nc2c(nc1-c1cnn(C)c1)CN(C(C)=O)CC2` (single isomer, unassigned) [Compound 244], the IC50 on GPR6 (setting [1]) and against GPR3 (setting [2]) was 1000 to 30000 nM throughout.
Turning to `Cn1cc(-c2nc3cnc([C@H](O)C(C)(C)O)cc3nc2N2CCC(=Cc3ccc(F)cc3F)CC2)cn1` (single isomer, unassigned) [Compound 720], the IC50 against GPR6 (procedure of Example 24) was under 100 nM; on GPR3 (procedure of Example 24), 1000 to 30000 nM.
In the case of `CC(C)(O)C(O)c1cc2nc(-c3cnn(C(F)F)c3)c(N3CCN(Cc4ccc(F)cc4F)CC3)nc2cn1` (single isomer, unassigned) [Compound 586], the IC50 on GPR6 (setting [4]) is under 100 nM; at GPR3 (setting [5]) it was 100 to 1000 nM.
With `CC(C)(O)[C@](C)(O)c1cc2nc(N3CCC(Oc4ccc(F)cc4F)CC3)c(-c3cnn(C4CC4)c3)nc2cn1` (single isomer, unassigned) [Compound 664], the IC50 against GPR6 (procedure of Example 24) fell in the range of 100 to 1000 nM; against GPR3 (procedure of Example 24), 1000 to 30000 nM.
For the molecule `Cn1cc(-c2nc3cnc(N)cc3nc2N2CCN(Cc3ccc(F)cc3F)CC2)cn1` [Compound 226, 2-{4-[(2,4-difluorophenyl)methyl]piperazin-1-yl}-3-(1-methyl-1H-pyrazol-4-yl)pyrido[3,4-b]pyrazin-7-amine], the figures for the IC50 on GPR6 (setting [1]) and against GPR3 (setting [2]) were under 100 nM and 1000 to 30000 nM, respectively.
Turning to `CC(=O)N1CCc2nc(N3CCN(Cc4cccc(=O)[nH]4)CC3)c(-c3cnn(C)c3)nc2C1` [Compound 530, 6-({4-[6-acetyl-3-(1-methyl-4-pyrazolyl)-5,6,7,8-tetrahydro-1,4,6-triaza-2-naphthyl]-1-piperazinyl}methyl)-2(1H)-pyridinone], the IC50 at GPR6 (setting [4]) and at GPR3 (setting [5]) was at least 30000 nM each time.
As to `CC(=O)N1CCc2nc(N3CCC(Oc4ccc(F)cc4F)CC3)c(-c3cnn4c3CNCC4)nc2C1` [Compound 108, 1-{2-[4-(2,4-difluorophenoxy)piperidin-1-yl]-3-{4H,5H,6H,7H-pyrazolo[1,5-a]pyrazin-3-yl}-5H,6H,7H,8H-pyrido[3,4-b]pyrazin-6-yl}ethan-1-one], the IC50 against GPR6 (setting [1]) and at GPR3 (setting [2]) was 1000 to 30000 nM each time.
In the case of `CO[C@H](CO)c1cc2nc(N3CCC(Oc4ccc(F)cc4F)CC3)c(-c3cnn(C)c3)nc2cn1` (single isomer, unassigned) [Compound 641], the IC50 lay within 100 to 1000 nM against GPR6 (procedure of Example 24) and 1000 to 30000 nM against GPR3 (procedure of Example 24).
As for `CC(=O)N1CCc2nc(N3CCC(Oc4ccc(F)cc4F)CC3)c(C3CCNCC3)nc2C1` [Compound 265, 1-{2-[4-(2,4-difluorophenoxy)piperidin-1-yl]-3-(piperidin-4-yl)-5H,6H,7H,8H-pyrido[3,4-b]pyrazin-6-yl}ethan-1-one], the IC50 against GPR6 (setting [1]) and on GPR3 (setting [2]) was 1000 to 30000 nM in each case.
Consider `Fc1ccc(OC2CCN(c3nc4cnccc4nc3-c3cnn(C4CCCCO4)c3)CC2)c(F)c1` (centres unmarked) [Compound 97, 4-(2,4-difluorophenoxy)-1-{2-[1-(oxan-2-yl)-1H-pyrazol-4-yl]pyrido[3,4-b]pyrazin-3-yl}piperidine], for which the IC50 against GPR6 (setting [1]) and against GPR3 (setting [2]) was 1000 to 30000 nM each time.
As to `CC(=O)N1CCc2nc(N3CCN(C(CO)(CO)c4ccccc4F)CC3)c(-c3cnn(C)c3)nc2C1` [Compound 552, 1-(2-{4-[1-(o-fluorophenyl)-2-hydroxy-1-(hydroxymethyl)ethyl]-1-piperazinyl}-3-(1-methyl-4-pyrazolyl)-5,6,7,8-tetrahydro-1,4,6-triaza-6-naphthyl)-1-ethanone], the IC50 is 1000 to 30000 nM at GPR6 (setting [4]) and at least 30000 nM against GPR3 (setting [5]).
Turning to `Cn1cc(-c2nc3cc(C(C)(O)C(C)(C)O)ncc3nc2N2CCN(Cc3ccc(F)cc3F)CC2)cn1` (centres unmarked) [Compound 604, 2-(3-{4-[(2,4-difluorophenyl)methyl]-1-piperazinyl}-2-(1-methyl-4-pyrazolyl)-1,4,6-triaza-7-naphthyl)-3-methyl-2,3-butanediol], the values for the IC50 against GPR6 (setting [4]) and on GPR3 (setting [5]) were 100 to 1000 nM and 1000 to 30000 nM, respectively.
Taken in the same sequence, the figures for `Cn1cc(-c2nc3cnc(C(C)(O)CO)cc3nc2N2CCC(Oc3ccc(F)cc3F)CC2)cn1` (centres unmarked) [Compound 556, 2-{2-[4-(2,4-difluorophenoxy)-1-piperidyl]-3-(1-methyl-4-pyrazolyl)-1,4,6-triaza-7-naphthyl}-1,2-propanediol] were 100 to 1000 nM and 1000 to 30000 nM.
